Among the data in patent US8846704B2, “Thiopyrimidine-based compounds and uses thereof” (YM Biosciences Austraila Pty Ltd, priority 2007, dated 2014) are IC50, inhibition and GI50 values, retold here.

A word on the inhibition: it is the percentage by which the read-out fell short of the control.

One assay has as its system CTLL2. The experiment in a line: Cellular screening, CTLL2 cells, Alamar Blue. It is filed as cell-based. Conditions: Mus musculus, CTLL-2, read-out: CTLL2 IC50_nM. On the procedure:
(§1) Cell suspensions were prepared by harvesting cells from culture (the cells used in this test were in late log phase growth with high viability.) Cells were diluted in the appropriate growth medium, as described above, to 1.1× final concentration (from 50,000 cell/mL to 200,000 cell/mL, depending on cell line).
(§2) Compounds to be tested were added (10 μL, 10× final concentration) to a flat bottomed 96-well plate. The cellular suspension (90 μL per well) was then added, and the plate incubated for 40 hr at 37° C., 5% CO2. Alamar Blue 10 μL per well was added and the plates returned to the incubator for a further 4-6 hours. The plates were then read at 544 nm.
(Resazurin is reduced to fluorescent resorufin, in cell work by metabolically active cells.)

For another assay, the target named is T1, human JAK1 (Homo sapiens, UniProt P23458).
T1 construct: The kinase domain of human JAK1 was amplified; GST (N); made in house; host or cells: Sf9 insect cells (baculovirus)
The experiment in a line: Alphascreen tyrosine kinase enzyme assay, JAK1 kinase domain. The assay is classed as biochemical. The following applies: read-out: JAK1 IC50_nM. The protocol: (§3) For screening purposes, compounds (in 100% DMSO) were warmed at 37 degrees for at least 20 minutes before use. A […] stock was initially made in assay buffer, where the final concentration of DMSO was 0.3%. The stocks were then diluted in 384 well Optiplates (Packard) where the final concentration of the compound was […].
The kinase domain of human JAK1 was amplified from U937mRNA using the polymerase chain reaction with the following primers: […]
The JAK1 PCR products were cloned into the pDest20 destination vector (Gibco). The JAK1 plasmid was then transformed into competent DH10Bac cells (Gibco), and the recombinant baculovirus was prepared via Sf9 insect cell transfection.
(§4) Baculovirus preparations from each of the constructs were infected into either one or five liters of Sf9 cells (Invitrogen) grown in SF-900 medium (Invitrogen) to a cell density of approximately 1-2×10^6 cells/ml. Cells were infected with virus at a MOI of 0.8-3.0. Cells were harvested and lysed. Tyrosine kinase domains were purified by affinity chromatography on a glutathione-agarose column (Scientifix Pty. Ltd. catalog #: GSH-200).
(§5) Kinase assays were performed in 384 well Optiplates (Packard) using an Alphascreen Protein Tyrosine Kinase PY100 detection kit The compounds were pre-incubated with affinity purified PTK domain in the presence of phosphotyrosine assay buffer (10 mM HEPES, pH 7.5, 100 mM MgCl2, 25 mM NaCl, […] and 0.1% Tween 20) for 20 minutes. The compounds were then incubated with substrate in the presence of ATP. The substrate used was susbtrate-1 with the sequence biotin-EGPWLEEEEEAYGWMDF-NH2 [SEQ. ID. NO. 13] (final concentration […]). For HCK 80 μm ATP was used and incubated for 60 minutes. Alphascreen phosphotyrosine acceptor beads followed by streptavidin donor beads at a concentration of 1/100 in stop buffer were added to each well under subdued light and incubated for 2-3 hours., The Alphascreen plates were read on a Packard Fusion Alpha instrument.

The target in another assay is T2, human JAK2 (Homo sapiens, UniProt O60674).
T2 construct: The kinase domain of human JAK2 was amplified; GST (N); made in house; host or cells: Sf9 insect cells (baculovirus)
The experiment in a line: Alphascreen tyrosine kinase enzyme assay, JAK2 kinase domain. The assay is classed as biochemical. Conditions: read-out: JAK2 IC50_nM. The protocol:
as §3
The kinase domain of human JAK2 was amplified from U937mRNA using the polymerase chain reaction with the following primers: […]
The JAK2 PCR products were cloned into the pDest20 destination vector (Gibco). The JAK2 plasmid was then transformed into competent DH10Bac cells (Gibco), and the recombinant baculovirus was prepared via Sf9 insect cell transfection.
as §4, §5

A further assay addresses T3, human JAK3 (Homo sapiens, UniProt P52333).
T3 construct: The kinase domain of human JAK3 was amplified; GST (N); made in house; host or cells: Sf9 insect cells (baculovirus)
In words: Alphascreen tyrosine kinase enzyme assay, JAK3 kinase domain. The assay is classed as biochemical. The following applies: read-out: JAK3 IC50_nM. The protocol: as §3
The kinase domain of human JAK3 was amplified from U937mRNA using the polymerase chain reaction with the following primers: […]
The JAK3 PCR products were cloned into the pDest20 destination expression vector (Gibco). The JAK3 plasmid was then transformed into competent DH10Bac cells (Gibco), and the recombinant baculovirus was prepared via Sf9 insect cell transfection.
as §4, §5

A further assay concerns the target T4, Bmx(h) (Homo sapiens, UniProt P51813).
T4 construct: purchased Upstate Biotechnology (Dundee, UK), KinaseProfiler service
T4 sequence (P51813 1-675): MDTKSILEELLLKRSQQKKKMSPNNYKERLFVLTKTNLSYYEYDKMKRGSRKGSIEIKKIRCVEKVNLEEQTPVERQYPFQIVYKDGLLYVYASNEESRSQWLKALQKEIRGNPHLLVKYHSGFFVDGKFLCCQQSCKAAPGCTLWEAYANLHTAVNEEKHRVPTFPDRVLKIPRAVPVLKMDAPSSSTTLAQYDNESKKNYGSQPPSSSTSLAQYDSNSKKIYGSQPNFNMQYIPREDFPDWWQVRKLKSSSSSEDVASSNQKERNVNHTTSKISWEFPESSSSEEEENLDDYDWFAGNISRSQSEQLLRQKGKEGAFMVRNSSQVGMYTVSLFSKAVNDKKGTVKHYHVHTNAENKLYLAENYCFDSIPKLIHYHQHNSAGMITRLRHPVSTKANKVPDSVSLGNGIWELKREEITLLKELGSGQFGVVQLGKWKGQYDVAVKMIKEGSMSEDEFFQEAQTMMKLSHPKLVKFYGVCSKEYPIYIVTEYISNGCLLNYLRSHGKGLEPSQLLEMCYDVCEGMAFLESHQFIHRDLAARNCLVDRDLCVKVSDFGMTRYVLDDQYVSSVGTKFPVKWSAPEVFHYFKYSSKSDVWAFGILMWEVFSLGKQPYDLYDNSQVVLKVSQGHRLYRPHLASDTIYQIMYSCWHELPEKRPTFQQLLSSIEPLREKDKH
The experiment in a line: Upstate KinaseProfiler enzyme assay, Bmx. Conditions: 500 nM compound; read-out: Percent inhibition at 500 nM Bmx(h). The assay is classed as biochemical. On the procedure:
(§6) Further enzyme assays were conducted at Upstate Biotechnology (Dundee, UK) in the KinaseProfiler™ Assay system.
(§7) The general protocol is as follows. All kinases are pre-diluted to a 10× working concentration prior to addition into the assay. The composition of the dilution buffer for the kinases is 20 mM MOPS pH 7.0, 1 mM EDTA, 0.1% β-mercaptoethanol, 0.01% Brij-35, 5% glycerol, 1 mg/ml BSA. All substrates are dissolved and diluted to working stocks in de-ionised water.

In another assay the target is T5, BTK(h) (Homo sapiens, UniProt Q06187).
T5 construct: purchased Upstate Biotechnology (Dundee, UK), KinaseProfiler service
The experiment in a line: Upstate KinaseProfiler enzyme assay, BTK. The assay is classed as biochemical. The following applies: 500 nM compound; read-out: Percent inhibition at 500 nM BTK(h). On the procedure: as §6, §7

The target of a further assay is T6, Blk(m) (Mus musculus, UniProt P16277).
T6 construct: purchased Upstate Biotechnology (Dundee, UK), KinaseProfiler service
The experiment in a line: Upstate KinaseProfiler enzyme assay, Blk. The assay is classed as biochemical. The following applies: 500 nM compound; read-out: Percent inhibition at 500 nM Blk(m). On the procedure: as §6, §7

The target in another assay is T7, KDR(h) (Homo sapiens, UniProt P35968).
T7 construct: purchased Upstate Biotechnology (Dundee, UK), KinaseProfiler service
The experiment in a line: Upstate KinaseProfiler enzyme assay, KDR. The assay is classed as biochemical. The following applies: 500 nM compound; read-out: Percent inhibition at 500 nM KDR(h). The protocol:
as §6, §7

The target of assay [1] is T8, BaF3 TELJAK2 cells (BafT_J2) (Homo sapiens, UniProt O60674).
T8 construct: fused on or other part: TEL (ETV6) N-terminal part, coding nucleotides 1-487, serves as the oligomerising partner; It is fused through a Sal I site to the JAK2 kinase domain and expressed from pTRE2 in BaF3 cells bearing pTET-off; P41212 (Transcription factor ETV6)
In words: Cellular screening, BaF3 TEL:JAK2 cells, Alamar Blue. The assay is classed as cell-based. Conditions: 40 hr, read-out: BafT_J2 IC50_nM. On the procedure: (§8) For screening purposes, compounds were diluted in 96 well plates at a concentration of 20 μM. Plates were warmed at 37° C. for 30 minutes before the assay was performed.
The coding region encompassing nucleotides 1-487 of TEL was amplified by PCR using the oligonucleotides STEL (5′-GGAGGATCCTGATCTCTCTCGCTGTGAGAC-3′) [SEQ ID NO 14] and 3TEL (5′-AGGC GTCGACTTCTTCTTCATGGTTCTG-3′) [SEQ ID NO 15] and U937 mRNA as a template. A […] restriction site was incorporated into the STEL primer, and a Sal I restriction site was incorporated into the 3TEL primer. The regions encompassing the kinase domain of JAK2 (nucleotides 2994-3914; JAK2F 5′-ACGC GTCGACGGTGCCTTTGAAGACCGGGAT-3′ [SEQ ID NO 16]; JAK2R 5′-ATAGTTTAGCGGCCGCTCAGAATGAAGGTCATTT-3′) [SEQ ID NO 17] and JAK3 (nucleotides 2520-3469; JAK3F 5′-GAAGTCGACTATGCCTGCCAAGACCCCACGATCTT-3′) [SEQ ID NO 18] were generated by PCR using Taq DNA polymerase (Gibco/BRL) and […] as a template. A Sal I restriction site was incorporated into the forward primer of JAK2 and JAK3, a Not I site was incorporated into the JAK2 reverse primer and a Xba I site was added to the reverse primer of JAK3.
A TEL/Jak2 fusion was generated by digestion of the TELPCR product with BamH I/Sal I restriction enzymes, digestion of the JAK2 PCR product with Sal I/Not I restriction enzymes, followed by ligation and subcloning of the ligation product into the mammalian expression Vector pTRE 2 (Clontech), which was prepared by digestion with BamH I-Not I restriction enzymes, to give the TEL/Jak2 fusion plasmid pTELJAK2.
(§9) The growth factor dependant myelomonocytic cell line BaF3 bearing the pTET-off plasmid (Clontech) was transfected with either pTELJAK2 or pTELJAK3, and the transfected cells were selected for growth-factor independent cell growth. The BaF3 wild-type cells were cultured in DMEM containing 10% FCS, 10% WEHI 3B conditioned medium. The BaF3 TELJAK cells ([…]) were cultured in DMEM 10% Tet-System Approved FBS (without WEHI 3B conditioned medium).
as §1, §2

The test system of a further assay is BaF3 wild-type cells. In words: Cellular screening, BaF3 wild-type cells, Alamar Blue. It is filed as cell-based. Conditions: Mus musculus, 40 hr, read-out: BAF3wt IC50_nM. The protocol:
as §8, §9, §1, §2

pIC50: −log10 of the molar value.

T3 sequence (P52333 822-1111 limits assumed): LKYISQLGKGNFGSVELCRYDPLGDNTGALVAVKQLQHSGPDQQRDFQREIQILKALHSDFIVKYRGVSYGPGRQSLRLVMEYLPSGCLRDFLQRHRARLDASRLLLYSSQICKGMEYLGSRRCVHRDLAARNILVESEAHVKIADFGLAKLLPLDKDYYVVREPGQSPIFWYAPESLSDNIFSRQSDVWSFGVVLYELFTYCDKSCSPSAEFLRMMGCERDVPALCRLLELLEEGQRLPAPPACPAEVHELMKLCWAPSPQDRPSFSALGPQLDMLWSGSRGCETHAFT
T2 sequence (O60674 849-1124 limits assumed): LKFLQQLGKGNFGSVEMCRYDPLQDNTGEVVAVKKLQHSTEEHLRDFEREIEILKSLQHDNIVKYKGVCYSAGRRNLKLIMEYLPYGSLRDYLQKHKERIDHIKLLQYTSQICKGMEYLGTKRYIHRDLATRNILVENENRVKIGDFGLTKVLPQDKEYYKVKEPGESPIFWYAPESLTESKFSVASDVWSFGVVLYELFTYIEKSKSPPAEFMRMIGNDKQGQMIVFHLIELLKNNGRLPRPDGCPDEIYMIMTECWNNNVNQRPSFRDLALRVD
T7 sequence (P35968 20-1356): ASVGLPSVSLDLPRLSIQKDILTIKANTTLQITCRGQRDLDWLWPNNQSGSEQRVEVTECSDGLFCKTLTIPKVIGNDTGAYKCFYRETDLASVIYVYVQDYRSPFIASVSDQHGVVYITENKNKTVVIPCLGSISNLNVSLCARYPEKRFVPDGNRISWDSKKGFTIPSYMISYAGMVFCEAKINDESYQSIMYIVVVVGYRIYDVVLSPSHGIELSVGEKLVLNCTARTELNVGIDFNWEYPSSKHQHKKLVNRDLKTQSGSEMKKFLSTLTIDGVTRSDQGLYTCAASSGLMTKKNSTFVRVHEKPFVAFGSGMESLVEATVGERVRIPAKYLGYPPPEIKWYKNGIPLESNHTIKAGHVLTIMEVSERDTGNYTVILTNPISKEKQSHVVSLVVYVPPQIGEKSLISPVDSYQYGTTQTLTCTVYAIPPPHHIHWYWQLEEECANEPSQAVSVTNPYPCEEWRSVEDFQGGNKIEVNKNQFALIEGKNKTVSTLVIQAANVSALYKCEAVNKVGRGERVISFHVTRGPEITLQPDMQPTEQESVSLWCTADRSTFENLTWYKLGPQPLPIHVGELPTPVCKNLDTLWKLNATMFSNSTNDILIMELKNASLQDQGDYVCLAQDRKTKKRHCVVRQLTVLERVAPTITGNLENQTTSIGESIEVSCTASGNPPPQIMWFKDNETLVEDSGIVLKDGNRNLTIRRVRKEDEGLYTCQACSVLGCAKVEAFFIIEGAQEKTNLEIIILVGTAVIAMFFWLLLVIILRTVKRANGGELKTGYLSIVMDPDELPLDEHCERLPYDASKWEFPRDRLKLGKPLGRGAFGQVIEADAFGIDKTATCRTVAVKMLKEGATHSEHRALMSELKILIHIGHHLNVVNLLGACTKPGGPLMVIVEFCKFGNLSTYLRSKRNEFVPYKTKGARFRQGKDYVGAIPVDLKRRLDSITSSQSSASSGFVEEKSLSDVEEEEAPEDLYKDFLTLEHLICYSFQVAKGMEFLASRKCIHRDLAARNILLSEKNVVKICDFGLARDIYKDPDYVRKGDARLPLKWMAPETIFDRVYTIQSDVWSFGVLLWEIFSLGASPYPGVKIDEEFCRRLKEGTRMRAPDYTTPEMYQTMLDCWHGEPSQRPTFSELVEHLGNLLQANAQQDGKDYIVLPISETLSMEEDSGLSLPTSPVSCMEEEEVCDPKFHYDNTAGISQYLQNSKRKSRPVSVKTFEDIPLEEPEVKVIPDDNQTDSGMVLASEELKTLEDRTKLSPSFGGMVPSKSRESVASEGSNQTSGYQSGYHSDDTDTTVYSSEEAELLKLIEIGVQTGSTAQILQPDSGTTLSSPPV
T6 sequence (P16277 whole entry): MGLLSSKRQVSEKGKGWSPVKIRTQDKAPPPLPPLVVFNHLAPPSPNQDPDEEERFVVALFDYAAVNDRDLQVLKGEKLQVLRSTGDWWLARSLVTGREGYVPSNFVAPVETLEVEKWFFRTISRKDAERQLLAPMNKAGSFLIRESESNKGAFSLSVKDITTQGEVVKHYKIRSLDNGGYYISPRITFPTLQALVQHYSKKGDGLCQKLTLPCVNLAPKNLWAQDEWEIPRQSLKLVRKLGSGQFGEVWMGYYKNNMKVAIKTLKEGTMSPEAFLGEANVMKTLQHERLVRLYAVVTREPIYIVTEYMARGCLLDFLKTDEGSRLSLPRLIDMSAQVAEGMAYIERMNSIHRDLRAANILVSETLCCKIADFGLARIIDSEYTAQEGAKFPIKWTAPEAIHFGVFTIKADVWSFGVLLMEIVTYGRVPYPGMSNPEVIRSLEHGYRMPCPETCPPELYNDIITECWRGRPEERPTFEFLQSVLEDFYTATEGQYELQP
T5 sequence (Q06187 whole entry): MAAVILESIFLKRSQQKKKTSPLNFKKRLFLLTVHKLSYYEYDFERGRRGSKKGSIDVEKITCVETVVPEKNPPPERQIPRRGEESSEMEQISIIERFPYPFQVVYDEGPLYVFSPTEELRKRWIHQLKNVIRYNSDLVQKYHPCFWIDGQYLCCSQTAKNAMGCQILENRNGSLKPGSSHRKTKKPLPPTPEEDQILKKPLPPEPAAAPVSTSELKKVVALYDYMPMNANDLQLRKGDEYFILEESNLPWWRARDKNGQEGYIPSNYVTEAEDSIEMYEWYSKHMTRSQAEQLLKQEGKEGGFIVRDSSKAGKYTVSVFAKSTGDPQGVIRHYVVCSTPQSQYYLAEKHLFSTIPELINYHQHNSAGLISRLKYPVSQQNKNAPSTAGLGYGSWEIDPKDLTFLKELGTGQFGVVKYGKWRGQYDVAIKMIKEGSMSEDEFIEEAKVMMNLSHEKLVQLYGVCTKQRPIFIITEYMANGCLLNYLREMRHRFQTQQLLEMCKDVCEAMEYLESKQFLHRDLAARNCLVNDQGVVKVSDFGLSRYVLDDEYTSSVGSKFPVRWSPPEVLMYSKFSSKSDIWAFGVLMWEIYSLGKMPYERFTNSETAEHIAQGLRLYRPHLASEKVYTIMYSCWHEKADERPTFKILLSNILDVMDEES
T1 sequence (P23458 875-1153 limits assumed): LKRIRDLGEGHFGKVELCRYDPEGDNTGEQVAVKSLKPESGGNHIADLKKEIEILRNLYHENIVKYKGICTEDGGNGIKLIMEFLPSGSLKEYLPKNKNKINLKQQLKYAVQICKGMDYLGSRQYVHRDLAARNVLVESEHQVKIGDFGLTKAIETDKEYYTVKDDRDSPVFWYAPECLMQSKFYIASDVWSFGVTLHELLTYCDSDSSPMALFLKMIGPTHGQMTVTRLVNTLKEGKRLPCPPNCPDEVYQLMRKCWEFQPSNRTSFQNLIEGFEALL
T8 sequence (O60674 whole entry, change not shown, the tested form may be a part): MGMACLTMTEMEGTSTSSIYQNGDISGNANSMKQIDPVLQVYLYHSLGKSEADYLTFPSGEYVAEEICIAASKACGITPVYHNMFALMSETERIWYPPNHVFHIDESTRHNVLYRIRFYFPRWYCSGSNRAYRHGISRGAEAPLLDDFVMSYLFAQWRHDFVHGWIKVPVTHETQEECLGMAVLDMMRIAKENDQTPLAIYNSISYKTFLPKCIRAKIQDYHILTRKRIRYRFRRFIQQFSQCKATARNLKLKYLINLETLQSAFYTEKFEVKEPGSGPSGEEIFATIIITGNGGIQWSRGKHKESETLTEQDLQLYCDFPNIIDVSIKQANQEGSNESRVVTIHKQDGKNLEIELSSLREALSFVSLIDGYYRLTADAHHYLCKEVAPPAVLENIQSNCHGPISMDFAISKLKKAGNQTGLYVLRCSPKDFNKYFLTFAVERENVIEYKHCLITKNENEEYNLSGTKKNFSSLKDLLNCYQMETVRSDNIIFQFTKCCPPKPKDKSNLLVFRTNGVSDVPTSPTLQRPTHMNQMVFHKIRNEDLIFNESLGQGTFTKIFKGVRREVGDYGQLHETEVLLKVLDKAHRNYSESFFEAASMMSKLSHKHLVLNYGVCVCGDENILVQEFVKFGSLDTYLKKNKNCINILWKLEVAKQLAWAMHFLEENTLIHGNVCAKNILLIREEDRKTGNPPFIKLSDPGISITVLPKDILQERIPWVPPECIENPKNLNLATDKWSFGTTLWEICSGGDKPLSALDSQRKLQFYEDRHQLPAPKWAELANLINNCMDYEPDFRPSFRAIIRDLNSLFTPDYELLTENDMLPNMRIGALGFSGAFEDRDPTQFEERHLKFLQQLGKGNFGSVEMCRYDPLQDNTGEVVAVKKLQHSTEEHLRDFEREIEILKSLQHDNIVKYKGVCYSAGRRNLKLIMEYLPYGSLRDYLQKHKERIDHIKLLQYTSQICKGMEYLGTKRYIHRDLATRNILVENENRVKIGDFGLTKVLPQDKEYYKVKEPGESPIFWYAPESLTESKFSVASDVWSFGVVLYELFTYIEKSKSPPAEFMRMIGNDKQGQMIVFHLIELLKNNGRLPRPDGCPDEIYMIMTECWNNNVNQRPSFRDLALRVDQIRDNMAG

In the case of `C=CC(=O)Nc1cccc(Nc2nccc(Sc3ncccn3)n2)c1` [Compound 3, N-(3-(4-(pyrimidin-2-ylthio)pyrimidin-2-ylao)phenyl)acrylamide], the pIC50 in the assay with CTLL2 was more than 5.30; on human JAK1, less than 6.00; at human JAK2, less than 6.00; on human JAK3, more than 7.00.

On to `C=CC(=O)Nc1cccc(Sc2ccnc(Nc3cc(OC)c(OC)c(OC)c3)n2)c1` [Compound 51, N-(3-(2-(3,4,5-trimethoxyphenylamino)pyrimidin-4-ylthio)phenyl)acrylamide], for which the inhibition at 0.5 µM came to 100% at Bmx(h), 100% at BTK(h), 29% at Blk(m) and 100% at KDR(h).

In the case of `C/C=C/C(=O)Nc1ccc(Sc2ccnc(Nc3ccc(N4CCOCC4)cc3)n2)cc1` [Compound 59, (E)-N-(4-(2-(4-morpholinophenylao)pyrimidin-4-ylthio)phenyl)but-2-enamide], the inhibition at 0.5 µM at Bmx(h), at BTK(h), at Blk(m) and at KDR(h) was 100% throughout.

Take `N#CCc1cn(Cc2ccc(Sc3ccnc(Nc4ccc(N5CCOCC5)cc4)n3)cc2)cn1` [Compound 90, 2-(1-(4-(2-(4-Morpholinophenylamino)pyrimidin-4-ylthio)benzyl)-1H-imidazol-4-yl)acetonitrile]: the GI50 in assay [1] was less than 5000 nM. Besides, the pIC50 is more than 5.30 with CTLL2, more than 4.70 in the assay with BaF3 wild-type cells, less than 6.00 at human JAK2 and more than 6.30 on human JAK3.

As for `Cc1cnc(Nc2ccc(N3CCOCC3)cc2)nc1Sc1ccc(N)c(C)c1Cl` [Compound 169, 4-(4-ao-2-chloro-3-methylphenylthio)-5-methyl-N-(4-morpholinophenyl)pyrimidin-2-ae], the pIC50 on human JAK1 is less than 6.00; at human JAK2 it was less than 6.00; on human JAK3, more than 7.00.

Turning to `Cc1cnc(Nc2ccc(N3CCOCC3)cc2)nc1Sc1ccc(Cn2cnc(C#N)c2C#N)cc1` [Compound 221, 1-(4-(5-methyl-2-(4-morpholinophenylao)pyrimidin-4-ylthio)benzyl)-1H-imidazole-4,5-dicarbonitrile], the pIC50 is more than 6.00 in the assay with CTLL2, more than 6.00 in the assay on BaF3 wild-type cells, less than 6.00 on human JAK2 and more than 6.30 at human JAK3.

Consider `C=CC(=O)Nc1ccc(Sc2nc(Nc3ccc(N4CCOCC4)cc3)ncc2C)c(Cl)c1` [Compound 252, N-(3-chloro-4-(5-methyl-2-(4-morpholinophenylao)pyrimidin-4-ylthio)phenyl)acrylamide], for which the GI50 in assay [1] is more than 20000 nM. Moreover, the pIC50 with CTLL2 is more than 6.00; with BaF3 wild-type cells, less than 4.70; at human JAK2, less than 6.00; on human JAK3, more than 7.00.

Regarding `CC#CC(=O)Nc1cccc(Sc2ccnc(Nc3ccc(N4CCOCC4)cc3)n2)c1` [Compound 331, N-(3-(2-(4-morpholinophenylao)pyrimidin-4-ylthio)phenyl)but-2-ynamide], the figures for the pIC50 on human JAK2 and at human JAK3 were less than 6.00 and more than 6.30, respectively.

As to `C=CC(=O)Nc1ccc(Sc2ccnc(Nc3cccc(S(=O)(=O)NCCC(C)C)c3)n2)cc1` [Compound 363, N-(4-(2-(3-(N-isopentylsulfamoyl)phenylao)pyrimidin-4-ylthio)phenyl)acrylamide], the pIC50 at human JAK2 is less than 6.00; at human JAK3 it was more than 7.00.
